Measured values as given in patent US20100298205A1, “METHODS AND COMPOSITIONS FOR THE TREATMENT OF CONDITIONS RELATED TO GASTRIC ACID SECRETION” (priority 2004, published 2010).
Read-outs that look alike come from different tables or passages of the source.

Assays:
[1] = system: Caco-2 cells; test: Caco-2 membrane permeability / bi-directional transport (Papp); format: in vitro ADME, human; details: apical to basolateral, 10 μM, 37° C.
Procedure: (§1) Determination of membrane permeability in all examples described herein was accomplished by the following procedure. This procedure is also used to determine whether a given prodrug falls within the scope of those claims given herein which relate to membrane permeability.
(§2) DMEM was equilibrated as a transport buffer in 37° C. water bath an hour before experiment. The cells were then equilibrated in transport buffer for 1 hr at 37° C.
(§3) Dosing solution (10 μM) was prepared by adding a 20 μL aliquot of a 10 mM stock solution of the prodrug to 20 mL of transport buffer.
(§4) Transport buffer was removed from both apical and basolateral compartment of filters. […] […] Fresh transport buffer (400 μL) was added back to the basolateral compartment, and the fluid was thoroughly mixed.
(§5) Lucifer yellow (LY) was used as a paracellular permeability reference standard to determine integrity of cell layers used in the experiments. LY transport in the apical to basolateral direction was carried out in the same manner as described above. Fluorescence level in basolateral fluid sampled at 5, 20, and 60 min post dose was determined using Fluostar Galaxy (BMG Labtechnologies, Durham, N.C.) at excitation/emission wavelengths of 485/520 nm. A standard curve covering the range from 0.002 to 0.5 mg/mL is constructed to quantify the amount of LY in the transport sample to calculate permeability coefficient (Papp).

[2] = Pharmacokinetics in dogs after oral or intravenous administration; format: in vivo, dogs (beagle); design: key to Dog T1/2 Prodrug: NC: plasma concentration of prodrug was too low to calculate half-life, or undetected; details: for Dog T1/2 Prodrug / Dog T1/2 PPI: oral, parenthesis = standard deviation; for Dog T1/2 Prodrug: systemic half-life of intact prodrug; for Dog T1/2 PPI: systemic half-life of the proton pump inhibitor; for t1/2: systemic half-life of PPI in dogs after oral administration
Procedure: (§6) Blood concentrations of the compounds omeprazole, lansoprazole, pantoprazole, rabeprazole, and test compounds were quantified using an achiral liquid chromatography tandem mass spectrometry method (LC-MS/MS). Systemic pharmacokinetic parameters were determined for omeprazole or lansoprazole using non-compartmental analysis in Watson® version 6.3, available from InnaPhase Corporation, Philadelphia, Pa.

[3] = Pharmacokinetics in rats after oral or intravenous administration; format: in vivo, rats (Sprague-Dawley); design: key to Rat T1/2 Prodrug: NC: plasma concentration of prodrug was too low to calculate half-life, or undetected; Rat T1/2 PPI: unit not given here; details: oral, parenthesis = standard deviation; for Rat T1/2 Prodrug: systemic half-life of intact prodrug; for Rat T1/2 PPI: systemic half-life of the proton pump inhibitor
Procedure: as §6

[4] = Caco-2 membrane permeability / bi-directional transport (Papp); format: in vitro ADME, human; details: human, Caco-2 cells
Procedure: as §1, §2, §3, §4, §5

[5] = somewhat buffer dependent, Kromer et al., Ekpe et al., cited from earlier work
[6] = system: MDR1; test: MDR1-MDCK bi-directional transport (Papp); format: in vitro ADME; details: dog, MDR1-MDCK cells
Excerpt: as §1
• Test System: Cultured Caco-2 cells and MDR1-MDCK cells • Seeding Density: 2×10^5 cells/cm^2 in Costar 12 well Transwell™plates • Culture Age: 17-21 days post seeding for Caco-2 cells, 2-3 days post seeding for MDR1-MDCK cells • Source: American Type Culture Collection, Manassas, Va. […]
The apparent permeability coefficient (Papp, cm/sec), otherwise known herein as the membrane permeability, is determined from the following relationship: […]
The transport rate J, is calculated as the slope of the linear regression fit for the transport amount over time data using Microsoft Excel® 97 SR-2 (Microsoft Corp. Redmond, Wash.),
Lucifer yellow (LY) was used as a paracellular permeability reference standard to determine integrity of cell layers used in the experiments. […] Fluorescence level in basolateral fluid sampled at 5, 20, and 60 min post dose was determined using Fluostar Galaxy (BMG Labtechnologies, Durham, N.C.) at excitation/emission wavelengths of 485/520 nm. […]

[7] = read-out: Ratio Papp BA/Papp AB

Permeability [1] | Dog T1/2 Prodrug [2] | Dog T1/2 PPI [2] | t1/2 [2] | Rat T1/2 Prodrug [3] | Rat T1/2 PPI [3] | SMILES | other results
0.16 ×10⁻⁶ cm/s | 12.4 min | 53.6 min | 53.4 min | NC | 1.93 (1.41) | Cc1c(OCC(F)(F)F)ccnc1C[S+]([O-])c1nc2ccccc2n1S(=O)(=O)c1cccc(C(=O)O)c1 (stereo not drawn) [Compound 7] | 
 | NC | 0.989 (0.307) |  |  |  | Cc1c(OCC(F)(F)F)ccnc1C[S+]([O-])c1nc2ccccc2n1S(=O)(=O)c1ccc(OCC(=O)O)cc1 (stereo not drawn) [Compound 10] | 
 | NC | 0.873 (0.288) |  | NC | 0.933 (1.009) | Cc1c(OCC(F)(F)F)ccnc1C[S+]([O-])c1nc2ccccc2n1S(=O)(=O)c1ccc(OCC(C)(C)C(=O)O)cc1 (stereo not drawn) [Compound 11] | 
 | NC | 55.9 min |  |  |  | Cc1c(OCC(F)(F)F)ccnc1C[S+]([O-])c1nc2ccccc2n1S(=O)(=O)c1ccc(CC(=O)O)c(CC(=O)O)c1 (stereo not drawn) [Compound 12] | 
 | 7.08 min | 83.4 min |  |  | 0.536 (0.217) | COc1ccc(C(=O)O)cc1S(=O)(=O)n1c([S+]([O-])Cc2nccc(OCC(F)(F)F)c2C)nc2ccccc21 (stereo not drawn) [Compound 14] | 
 |  |  |  |  |  | COc1ccc2[nH]c([S+]([O-])Cc3ncc(C)c(OC)c3C)nc2c1 (stereo not drawn) [Omeprazole] | Papp A→B at 60 min, 10 μM ([4]; A to B, 10 μM): 12.6 ×10⁻⁶ cm/s; Papp B→A at 60 min, 10 μM ([4]; B to A, 10 μM): 16.3 ×10⁻⁶ cm/s; efflux ratio at 60 min, 10 µM [4, 7]: 1.29; typical half-life (stability) ([5]; pH 5): about 1 hour; typical half-life (stability) ([5]; pH 7): about 40 hours; Papp B→A at 60 min, 10 μM ([6]; B to A, 10 μM): 17.1 ×10⁻⁶ cm/s; efflux ratio at 60 min, 10 µM [6, 7]: 1.52
0.23 ×10⁻⁶ cm/s | NC | 64.8 min | 66 min | NC | 1.80 (1.20) | COc1ccc(S(=O)(=O)n2c([S+]([O-])Cc3nccc(OCC(F)(F)F)c3C)nc3ccccc32)cc1C(=O)O (stereo not drawn) [Compound 8] | 
 | 7.32 min | 106 min |  | NC | 2.35 (1.22) | Cc1ccc(C(=O)O)cc1S(=O)(=O)n1c([S+]([O-])Cc2nccc(OCC(F)(F)F)c2C)nc2ccccc21 (stereo not drawn) [Compound 13] | 
 | NC | 55.4 min |  |  |  | Cc1c(OCC(F)(F)F)ccnc1C[S+]([O-])c1nc2ccccc2n1S(=O)(=O)c1ccc(CC(=O)O)cc1C(C)C (stereo not drawn) [Compound 15] | 
0.34 ×10⁻⁶ cm/s | NC | 53.6 min | 53.4 min | NC | 0.341 (0.151) | Cc1c(OCC(F)(F)F)ccnc1C[S+]([O-])c1nc2ccccc2n1S(=O)(=O)c1ccc(CC(=O)O)cc1 (stereo not drawn) [Compound 9] | 
